pIC50: −log10 of the molar value. Like-named read-outs stand apart in the source and are kept apart here.
How the values were obtained:
Assay type in all cases: biochemical
CDK9-CYCLINT1 = CDK9-CYCLINT1 (Homo sapiens, UniProt P50750); experiment: Microfluidic LabChip inhibition assay, CDK9-CYCLINT1; settings: ATP 10 μM
Experimental: (§1) The reaction was terminated by the addition of EDTA. The plates were analyzed using a Caliper LabChip 3000.
(§2) Additional inhibition assays were performed as described above.

CDK7 CyclinH = CDK7 CyclinH (Homo sapiens, UniProt P50613); experiment: Inhibition assay, CDK7 CyclinH
Experimental: as §1, §2

CDK2-CYCLINA = CDK2-CYCLINA (Homo sapiens, UniProt P24941); experiment: Microfluidic LabChip inhibition assay, CDK2-CYCLINA; settings: ATP 50 μM
Experimental: as §1, §2

CDK1/B = CDK1/B (Homo sapiens, UniProt P06493); experiment: Inhibition assay, CDK1/B; settings: read-out: CDK1/B IC50
Experimental: as §1, §2

CDK4-CYCLIND1 = CDK4-CYCLIND1 (Homo sapiens, UniProt P11802); experiment: Microfluidic LabChip inhibition assay, CDK4-CYCLIND1; settings: ATP 200 μM, second values in parentheses on the line below, not explained, read-out: CDK4 CyclinD1 IC50
Experimental: as §1, §2

CDK7 CyclinH, sequence (P50613 whole entry): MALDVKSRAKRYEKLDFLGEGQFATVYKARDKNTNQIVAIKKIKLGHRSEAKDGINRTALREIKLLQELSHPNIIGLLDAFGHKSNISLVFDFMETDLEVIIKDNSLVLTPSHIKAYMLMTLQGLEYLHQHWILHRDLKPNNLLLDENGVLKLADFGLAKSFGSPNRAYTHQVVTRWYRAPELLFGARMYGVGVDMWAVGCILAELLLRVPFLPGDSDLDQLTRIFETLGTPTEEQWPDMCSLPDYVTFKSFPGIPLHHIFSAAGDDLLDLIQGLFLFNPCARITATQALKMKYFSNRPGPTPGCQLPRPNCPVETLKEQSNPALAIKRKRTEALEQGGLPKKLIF
CDK7 CyclinH, sequence (P51946 whole entry partner): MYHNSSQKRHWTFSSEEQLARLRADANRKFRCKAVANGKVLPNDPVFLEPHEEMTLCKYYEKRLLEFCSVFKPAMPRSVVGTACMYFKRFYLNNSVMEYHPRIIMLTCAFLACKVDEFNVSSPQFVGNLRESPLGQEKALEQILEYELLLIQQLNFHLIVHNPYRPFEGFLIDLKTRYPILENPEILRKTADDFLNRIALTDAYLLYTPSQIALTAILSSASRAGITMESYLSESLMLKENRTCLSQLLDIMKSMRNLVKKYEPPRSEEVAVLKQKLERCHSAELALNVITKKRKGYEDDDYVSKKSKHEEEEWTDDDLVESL
CDK7 CyclinH, sequence (P51948 whole entry partner): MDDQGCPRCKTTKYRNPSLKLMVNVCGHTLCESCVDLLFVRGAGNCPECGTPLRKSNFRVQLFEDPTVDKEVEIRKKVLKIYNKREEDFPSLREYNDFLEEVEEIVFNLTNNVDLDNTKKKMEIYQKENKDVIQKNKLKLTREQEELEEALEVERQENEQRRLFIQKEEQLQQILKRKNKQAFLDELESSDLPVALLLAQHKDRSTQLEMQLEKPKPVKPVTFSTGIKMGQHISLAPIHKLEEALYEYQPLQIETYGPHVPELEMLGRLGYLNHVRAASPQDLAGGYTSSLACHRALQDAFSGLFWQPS
CDK1/B, sequence (P06493 whole entry): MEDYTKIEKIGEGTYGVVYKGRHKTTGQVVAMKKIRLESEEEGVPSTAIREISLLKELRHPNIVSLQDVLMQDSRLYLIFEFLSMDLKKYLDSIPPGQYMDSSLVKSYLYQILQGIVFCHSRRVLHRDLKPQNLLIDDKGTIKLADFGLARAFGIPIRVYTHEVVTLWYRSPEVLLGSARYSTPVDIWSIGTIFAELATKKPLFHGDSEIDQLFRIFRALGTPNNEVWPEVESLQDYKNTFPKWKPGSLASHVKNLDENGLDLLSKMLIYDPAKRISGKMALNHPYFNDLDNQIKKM
CDK1/B, sequence (P14635 whole entry partner): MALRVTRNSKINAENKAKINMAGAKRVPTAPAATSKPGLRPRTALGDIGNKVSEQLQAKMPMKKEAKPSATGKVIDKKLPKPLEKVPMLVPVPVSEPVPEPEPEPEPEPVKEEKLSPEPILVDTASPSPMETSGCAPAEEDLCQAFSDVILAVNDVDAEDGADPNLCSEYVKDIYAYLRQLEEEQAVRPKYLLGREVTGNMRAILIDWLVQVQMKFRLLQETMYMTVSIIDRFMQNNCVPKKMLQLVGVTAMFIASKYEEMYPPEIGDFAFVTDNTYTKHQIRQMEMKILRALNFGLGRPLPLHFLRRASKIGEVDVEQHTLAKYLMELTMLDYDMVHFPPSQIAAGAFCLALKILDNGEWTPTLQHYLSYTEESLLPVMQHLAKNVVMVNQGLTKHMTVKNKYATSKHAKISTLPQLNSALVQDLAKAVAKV
CDK4-CYCLIND1, sequence (P11802 whole entry): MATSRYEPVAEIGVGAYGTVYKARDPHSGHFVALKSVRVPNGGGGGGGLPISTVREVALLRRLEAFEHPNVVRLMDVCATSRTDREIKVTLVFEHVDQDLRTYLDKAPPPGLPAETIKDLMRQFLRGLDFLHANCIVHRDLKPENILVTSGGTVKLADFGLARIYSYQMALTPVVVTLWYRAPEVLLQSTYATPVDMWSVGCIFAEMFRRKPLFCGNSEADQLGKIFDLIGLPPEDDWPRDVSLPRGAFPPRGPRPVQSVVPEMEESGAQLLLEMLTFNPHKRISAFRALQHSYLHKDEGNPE
CDK4-CYCLIND1, sequence (P24385 whole entry partner): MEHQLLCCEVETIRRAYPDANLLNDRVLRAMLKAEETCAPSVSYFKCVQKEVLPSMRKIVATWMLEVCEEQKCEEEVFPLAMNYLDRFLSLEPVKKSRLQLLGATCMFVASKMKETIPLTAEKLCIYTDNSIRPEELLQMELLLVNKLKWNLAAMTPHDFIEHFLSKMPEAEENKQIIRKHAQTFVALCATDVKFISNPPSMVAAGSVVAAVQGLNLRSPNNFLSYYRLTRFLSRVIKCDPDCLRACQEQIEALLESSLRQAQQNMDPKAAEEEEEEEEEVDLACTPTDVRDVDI
CDK9-CYCLINT1, sequence (P50750 whole entry): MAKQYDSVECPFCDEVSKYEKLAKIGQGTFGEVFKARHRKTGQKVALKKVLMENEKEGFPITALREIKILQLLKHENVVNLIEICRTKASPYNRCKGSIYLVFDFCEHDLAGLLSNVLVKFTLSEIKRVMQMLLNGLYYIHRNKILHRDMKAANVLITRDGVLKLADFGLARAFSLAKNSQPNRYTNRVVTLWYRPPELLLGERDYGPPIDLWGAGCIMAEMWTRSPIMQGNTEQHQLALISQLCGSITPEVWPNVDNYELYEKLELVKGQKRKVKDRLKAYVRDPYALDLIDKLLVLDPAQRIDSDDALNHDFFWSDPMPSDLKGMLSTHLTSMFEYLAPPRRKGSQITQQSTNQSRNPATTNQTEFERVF
CDK9-CYCLINT1, sequence (O60563 whole entry partner): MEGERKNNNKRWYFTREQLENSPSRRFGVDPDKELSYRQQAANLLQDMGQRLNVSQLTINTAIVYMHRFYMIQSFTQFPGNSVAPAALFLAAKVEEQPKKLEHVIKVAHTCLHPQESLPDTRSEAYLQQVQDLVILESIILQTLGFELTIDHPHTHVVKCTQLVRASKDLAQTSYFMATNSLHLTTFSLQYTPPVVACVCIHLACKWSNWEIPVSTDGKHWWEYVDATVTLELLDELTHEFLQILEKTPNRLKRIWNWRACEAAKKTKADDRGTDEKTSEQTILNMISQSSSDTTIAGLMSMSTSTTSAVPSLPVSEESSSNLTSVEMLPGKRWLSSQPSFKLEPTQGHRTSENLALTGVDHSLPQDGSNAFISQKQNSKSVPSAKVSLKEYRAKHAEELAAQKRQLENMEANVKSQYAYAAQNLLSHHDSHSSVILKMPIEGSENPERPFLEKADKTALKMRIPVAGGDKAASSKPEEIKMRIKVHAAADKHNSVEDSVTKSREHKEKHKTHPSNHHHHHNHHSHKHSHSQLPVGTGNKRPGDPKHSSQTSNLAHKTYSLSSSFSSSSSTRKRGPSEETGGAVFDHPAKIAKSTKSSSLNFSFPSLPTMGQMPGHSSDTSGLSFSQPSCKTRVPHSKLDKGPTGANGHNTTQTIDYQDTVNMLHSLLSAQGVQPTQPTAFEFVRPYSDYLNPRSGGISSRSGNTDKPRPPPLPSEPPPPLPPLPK

| SMILES | pIC50 (CDK9-CYCLINT1; Table 3a) | pIC50 (CDK9-CYCLINT1; Table 3b) | pIC50 (CDK7 CyclinH; Table 3a) | pIC50 (CDK7 CyclinH; Table 3b) | pIC50 (CDK2-CYCLINA; Table 3a) | pIC50 (CDK2-CYCLINA; Table 3b) | pIC50 (CDK1/B; Table 3a) | pIC50 (CDK4-CYCLIND1; Table 3a) | pIC50 (CDK4-CYCLIND1; Table 3b) | pIC50 (CDK1/B; Table 3b) |
| --- | --- | --- | --- | --- | --- | --- | --- | --- | --- | --- |
| Cc1c(C(=O)N(C)C)c(=O)n(C23CC(C2)C3)c2nc(NC3CCN(S(C)(=O)=O)CC3)ncc12 [Compound B156, 8-(bicyclo[1.1.1]pentan-1-yl)-N,N,5-trimethyl-2-((1-(methylsulfonyl)piperidin-4-yl)amino)-7-oxo-7,8-dihydropyrido[2,3-d]pyrimidine-6-carboxamide] | < 5.00 | < 5.00 | < 5.00 | < 5.00 | 5.99 | 5.99 | 5.55 | 7.00 | 7.00 | – |
| Cc1c(C(=O)N(C)C)c(=O)n(C23CC(C2)C3)c2nc(NC3CC4CCC3C4)ncc12 (stereo not drawn) [Compound B157, 8-(bicyclo[1.1.1]pentan-1-yl)-2-(bicyclo[2.2.1]heptan-2-ylamino)-N,N,5-trimethyl-7-oxo-7,8-dihydropyrido[2,3-d]pyrimidine-6-carboxamide] | 5.61 | 5.61 | < 5.00 | < 5.00 | 5.28 | 5.28 | < 5.00 | 5.90 | 5.90 | < 5.00 |
| Cc1c(C(=O)N(C)C)c(=O)n(C23CC(C2)C3)c2nc(NC3CC4CCC3C4)ncc12 (stereo not drawn) [Compound B158, 8-(bicyclo[1.1.1]pentan-1-yl)-2-(bicyclo[2.2.1]heptan-2-ylamino)-N,N,5-trimethyl-7-oxo-7,8-dihydropyrido[2,3-d]pyrimidine-6-carboxamide] | 5.56 | 5.56 | < 5.00 | – | < 5.00 | < 5.00 | < 5.00 | 5.80 | 5.80 | – |
| CN1CC2(C1)CN(c1ccc(Nc3ncc4cc(C#N)c(=O)n(C5CCCC5)c4n3)cc1)C2 [Compound B159, 8-cyclopentyl-2-((4-(6-methyl-2,6-diazaspiro[3.3]heptan-2-yl)phenyl)amino)-7-oxo-7,8-dihydropyrido[2,3-d]pyrimidine-6-carbonitrile] | 7.04 | 7.04 | 5.62 | 5.62 | 6.30 | 6.30 | 5.89 | 8.40 | 8.40 | – |

— patent publication US20220220103A1, “CYCLIN-DEPENDENT KINASE INHIBITORS” (SPV THERAPEUTICS INC., priority 2018, published 2022)
